Laboratory results: ChEMBL document CHEMBL5212743, “Selectivity Literature for EUbOPEN Chemogenomics Library wave 3” (2023)

Columns and labels:
[1] = target: Histone-lysine N-methyltransferase EZH2 (Homo sapiens, UniProt Q15910); test: Selectivity interaction (HMT panel) EUB0000194b EZH2
[2] = target: Protein arginine N-methyltransferase 1 (Homo sapiens, UniProt Q99873); test: Selectivity interaction (HMT panel) EUB0000194b PRMT1
[3] = target: Histone-lysine N-methyltransferase SUV39H2 (Homo sapiens, UniProt Q9H5I1); test: Selectivity interaction (HMT panel) EUB0000194b SUV39H2
[4] = target: Histone-lysine N-methyltransferase 2A (Homo sapiens, UniProt Q03164); test: Selectivity interaction (HMT panel) EUB0000194b MLL
[5] = target: Histone-lysine N-methyltransferase KMT5B (Homo sapiens, UniProt Q4FZB7); test: Selectivity interaction (HMT panel) EUB0000194b SUV420H1
[6] = target: Histone-lysine N-methyltransferase KMT5C (Homo sapiens, UniProt Q86Y97); test: Selectivity interaction (HMT panel) EUB0000194b SUV420H2
[7] = target: Histone-lysine N-methyltransferase SETDB1 (Homo sapiens, UniProt Q15047); test: Selectivity interaction (HMT panel) EUB0000194b SETDB1
[8] = target: T1, Histone-lysine N-methyltransferase SETD7 (Homo sapiens, UniProt Q8WTS6); test: Selectivity interaction (HMT panel) EUB0000194b SETD7
T1 sequence (Q8WTS6 whole entry): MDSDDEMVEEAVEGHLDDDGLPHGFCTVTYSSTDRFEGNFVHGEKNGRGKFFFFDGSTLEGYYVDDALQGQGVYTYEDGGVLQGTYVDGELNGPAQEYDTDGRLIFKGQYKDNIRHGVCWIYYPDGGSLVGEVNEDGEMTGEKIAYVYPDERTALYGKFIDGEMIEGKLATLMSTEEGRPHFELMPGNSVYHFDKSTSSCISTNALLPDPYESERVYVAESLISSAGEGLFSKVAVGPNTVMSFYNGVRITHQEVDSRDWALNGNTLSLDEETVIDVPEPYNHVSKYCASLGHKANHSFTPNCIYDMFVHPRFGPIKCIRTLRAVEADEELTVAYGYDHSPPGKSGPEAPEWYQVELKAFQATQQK

[9] = target: Protein arginine N-methyltransferase 5 (Homo sapiens, UniProt O14744); test: Selectivity interaction (HMT panel) EUB0000194b PRMT5
[10] = target: Histone-arginine methyltransferase CARM1 (Homo sapiens, UniProt Q86X55); test: Selectivity interaction (HMT panel) EUB0000194b CARM1
[11] = target: T2, Alpha-2C adrenergic receptor (Homo sapiens, UniProt P18825); test: Selectivity interaction (Enzyme panel (GPCRS, ion channels, and transporters)) EUB0000194b ADRA2C
T2 sequence (P18825 whole entry): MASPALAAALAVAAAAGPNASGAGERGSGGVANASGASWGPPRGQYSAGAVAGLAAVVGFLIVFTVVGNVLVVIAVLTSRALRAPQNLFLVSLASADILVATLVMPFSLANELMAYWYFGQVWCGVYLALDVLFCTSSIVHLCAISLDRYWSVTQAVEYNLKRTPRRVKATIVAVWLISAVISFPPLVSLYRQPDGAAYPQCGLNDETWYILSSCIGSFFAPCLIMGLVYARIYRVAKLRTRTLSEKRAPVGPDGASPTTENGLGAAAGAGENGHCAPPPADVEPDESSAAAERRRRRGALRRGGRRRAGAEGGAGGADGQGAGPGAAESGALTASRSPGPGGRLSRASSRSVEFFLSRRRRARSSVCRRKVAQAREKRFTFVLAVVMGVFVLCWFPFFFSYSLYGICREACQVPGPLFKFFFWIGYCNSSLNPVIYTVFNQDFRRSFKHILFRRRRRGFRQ

[12] = target: T3, N-lysine methyltransferase KMT5A (Homo sapiens, UniProt Q9NQR1); test: Selectivity interaction (HMT panel) EUB0000194b SETD8
T3 sequence (Q9NQR1 whole entry): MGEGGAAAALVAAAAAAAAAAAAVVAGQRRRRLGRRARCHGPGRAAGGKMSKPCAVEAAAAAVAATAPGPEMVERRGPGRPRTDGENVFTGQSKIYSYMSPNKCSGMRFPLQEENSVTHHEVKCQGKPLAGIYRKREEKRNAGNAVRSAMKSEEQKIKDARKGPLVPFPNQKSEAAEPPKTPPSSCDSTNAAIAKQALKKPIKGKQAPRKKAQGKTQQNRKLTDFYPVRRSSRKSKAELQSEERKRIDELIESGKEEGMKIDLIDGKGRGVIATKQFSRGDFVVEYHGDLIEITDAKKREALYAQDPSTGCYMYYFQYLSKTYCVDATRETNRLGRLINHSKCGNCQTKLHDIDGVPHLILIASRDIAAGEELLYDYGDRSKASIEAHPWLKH

[13] = target: Protein arginine N-methyltransferase 3 (Homo sapiens, UniProt O60678); test: Selectivity interaction (HMT panel) EUB0000194b PRMT3
[14] = target: Protein arginine N-methyltransferase 8 (Homo sapiens, UniProt Q9NR22); test: Selectivity interaction (HMT panel) EUB0000194b PRMT8
[15] = target: T4, Tyrosine-protein kinase JAK1 (Homo sapiens, UniProt P23458); test: Selectivity interaction (NanoBRET assay (HEK293T cells)) EUB0000312b JAK1@kinase 1
[16] = target: T5, Calcium/calmodulin-dependent protein kinase type 1B (Homo sapiens, UniProt Q6P2M8); test: Selectivity interaction (NanoBRET assay (HEK293T cells)) EUB0000312b PNCK
[17] = target: T5, Calcium/calmodulin-dependent protein kinase type 1B; test: Selectivity interaction (KinomeScan (DiscoverX)) EUB0000312b PNCK; conditions: at 1 µM
[18] = target: T4, Tyrosine-protein kinase JAK1; test: Selectivity interaction (KinomeScan (DiscoverX)) EUB0000312b JAK1@kinase 1; conditions: at 1 µM
[19] = target: T6, Phosphatidylinositol 4,5-bisphosphate 3-kinase catalytic subunit alpha isoform (Homo sapiens, UniProt P42336); test: Selectivity interaction (NanoBRET assay (HEK293T cells)) EUB0000312b PIK3CA
[20] = target: T7, Epithelial discoidin domain-containing receptor 1 (Homo sapiens, UniProt Q08345); test: Selectivity interaction (KinomeScan (DiscoverX)) EUB0000312b DDR1; conditions: at 1 µM
[21] = target: T6, Phosphatidylinositol 4,5-bisphosphate 3-kinase catalytic subunit alpha isoform; test: Selectivity interaction (KinomeScan (DiscoverX)) EUB0000312b PIK3CA; conditions: at 1 µM
[22] = target: Mitogen-activated protein kinase 9 (Homo sapiens, UniProt P45984); test: Selectivity interaction (KinomeScan (DiscoverX)) EUB0000312b MAPK9; conditions: at 1 µM
[23] = target: T7, Epithelial discoidin domain-containing receptor 1; test: Selectivity interaction (NanoBRET assay (HEK293T cells)) EUB0000312b DDR1

T4 sequence (P23458 whole entry): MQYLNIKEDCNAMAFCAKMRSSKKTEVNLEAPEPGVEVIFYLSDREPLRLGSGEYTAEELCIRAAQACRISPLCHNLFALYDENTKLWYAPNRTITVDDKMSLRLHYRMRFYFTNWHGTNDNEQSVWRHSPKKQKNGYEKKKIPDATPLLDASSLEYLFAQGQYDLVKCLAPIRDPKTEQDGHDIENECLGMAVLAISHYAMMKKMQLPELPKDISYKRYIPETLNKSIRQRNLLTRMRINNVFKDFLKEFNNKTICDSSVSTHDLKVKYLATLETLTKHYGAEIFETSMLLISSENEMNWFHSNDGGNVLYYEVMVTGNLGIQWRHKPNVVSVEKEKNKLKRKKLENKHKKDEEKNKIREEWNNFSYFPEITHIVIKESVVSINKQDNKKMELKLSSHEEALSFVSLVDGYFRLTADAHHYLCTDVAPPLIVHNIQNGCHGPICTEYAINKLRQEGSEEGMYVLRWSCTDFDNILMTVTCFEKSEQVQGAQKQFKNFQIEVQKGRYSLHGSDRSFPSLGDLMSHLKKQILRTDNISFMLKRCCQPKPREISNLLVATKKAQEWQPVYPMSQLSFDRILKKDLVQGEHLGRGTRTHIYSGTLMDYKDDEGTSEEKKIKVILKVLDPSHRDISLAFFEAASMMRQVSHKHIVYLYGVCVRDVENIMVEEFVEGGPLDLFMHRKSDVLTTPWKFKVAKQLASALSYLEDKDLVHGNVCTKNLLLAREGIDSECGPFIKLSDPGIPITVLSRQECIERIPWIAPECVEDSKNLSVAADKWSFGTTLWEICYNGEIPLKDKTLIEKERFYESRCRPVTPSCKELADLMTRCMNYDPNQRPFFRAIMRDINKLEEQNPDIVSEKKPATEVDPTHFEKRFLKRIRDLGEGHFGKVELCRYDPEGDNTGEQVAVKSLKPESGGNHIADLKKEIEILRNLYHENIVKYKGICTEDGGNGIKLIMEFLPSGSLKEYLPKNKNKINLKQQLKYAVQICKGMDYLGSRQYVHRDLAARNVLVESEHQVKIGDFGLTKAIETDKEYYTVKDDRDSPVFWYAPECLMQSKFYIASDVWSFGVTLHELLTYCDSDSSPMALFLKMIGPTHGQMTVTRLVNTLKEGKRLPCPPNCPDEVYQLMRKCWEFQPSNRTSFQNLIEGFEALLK
T6 sequence (P42336 whole entry, the tested form may be a part, canonical isoform): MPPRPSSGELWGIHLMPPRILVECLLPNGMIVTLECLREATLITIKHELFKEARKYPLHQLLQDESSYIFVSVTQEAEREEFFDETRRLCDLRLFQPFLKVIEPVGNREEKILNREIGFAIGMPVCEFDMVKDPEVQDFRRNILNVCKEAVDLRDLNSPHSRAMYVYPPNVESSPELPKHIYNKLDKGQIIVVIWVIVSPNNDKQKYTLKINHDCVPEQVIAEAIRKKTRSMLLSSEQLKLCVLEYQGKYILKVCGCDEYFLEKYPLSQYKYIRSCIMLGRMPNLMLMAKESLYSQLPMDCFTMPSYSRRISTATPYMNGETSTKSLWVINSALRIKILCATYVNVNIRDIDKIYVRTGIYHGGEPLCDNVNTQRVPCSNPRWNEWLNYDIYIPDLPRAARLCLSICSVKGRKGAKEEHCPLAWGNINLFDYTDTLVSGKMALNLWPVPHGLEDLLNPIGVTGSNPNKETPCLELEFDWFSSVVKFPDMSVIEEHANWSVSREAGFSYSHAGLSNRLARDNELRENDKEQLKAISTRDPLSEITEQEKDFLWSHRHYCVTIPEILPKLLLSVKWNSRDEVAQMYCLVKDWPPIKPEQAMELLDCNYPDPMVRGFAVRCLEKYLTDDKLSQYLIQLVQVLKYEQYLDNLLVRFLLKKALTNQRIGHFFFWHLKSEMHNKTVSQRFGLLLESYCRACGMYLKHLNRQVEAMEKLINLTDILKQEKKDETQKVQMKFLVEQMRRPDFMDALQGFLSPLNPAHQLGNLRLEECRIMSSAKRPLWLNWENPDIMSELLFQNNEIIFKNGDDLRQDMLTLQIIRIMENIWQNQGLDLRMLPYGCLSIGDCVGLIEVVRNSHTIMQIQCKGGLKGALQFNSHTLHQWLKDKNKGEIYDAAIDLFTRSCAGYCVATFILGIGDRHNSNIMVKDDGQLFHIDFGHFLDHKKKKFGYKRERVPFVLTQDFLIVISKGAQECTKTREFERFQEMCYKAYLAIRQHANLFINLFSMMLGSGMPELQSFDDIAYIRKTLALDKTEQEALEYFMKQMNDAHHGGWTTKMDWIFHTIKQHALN
T5 sequence (Q6P2M8 whole entry): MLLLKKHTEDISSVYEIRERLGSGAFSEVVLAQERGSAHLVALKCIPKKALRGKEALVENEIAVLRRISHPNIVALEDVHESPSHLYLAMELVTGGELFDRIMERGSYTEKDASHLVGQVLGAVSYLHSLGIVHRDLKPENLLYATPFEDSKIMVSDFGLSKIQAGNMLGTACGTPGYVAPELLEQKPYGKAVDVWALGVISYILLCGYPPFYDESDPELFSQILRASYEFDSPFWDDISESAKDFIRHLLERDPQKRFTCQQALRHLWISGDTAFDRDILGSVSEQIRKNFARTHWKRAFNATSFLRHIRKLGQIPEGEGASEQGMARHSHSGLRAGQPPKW
T7 sequence (Q08345 whole entry, the tested form may be a part, canonical isoform): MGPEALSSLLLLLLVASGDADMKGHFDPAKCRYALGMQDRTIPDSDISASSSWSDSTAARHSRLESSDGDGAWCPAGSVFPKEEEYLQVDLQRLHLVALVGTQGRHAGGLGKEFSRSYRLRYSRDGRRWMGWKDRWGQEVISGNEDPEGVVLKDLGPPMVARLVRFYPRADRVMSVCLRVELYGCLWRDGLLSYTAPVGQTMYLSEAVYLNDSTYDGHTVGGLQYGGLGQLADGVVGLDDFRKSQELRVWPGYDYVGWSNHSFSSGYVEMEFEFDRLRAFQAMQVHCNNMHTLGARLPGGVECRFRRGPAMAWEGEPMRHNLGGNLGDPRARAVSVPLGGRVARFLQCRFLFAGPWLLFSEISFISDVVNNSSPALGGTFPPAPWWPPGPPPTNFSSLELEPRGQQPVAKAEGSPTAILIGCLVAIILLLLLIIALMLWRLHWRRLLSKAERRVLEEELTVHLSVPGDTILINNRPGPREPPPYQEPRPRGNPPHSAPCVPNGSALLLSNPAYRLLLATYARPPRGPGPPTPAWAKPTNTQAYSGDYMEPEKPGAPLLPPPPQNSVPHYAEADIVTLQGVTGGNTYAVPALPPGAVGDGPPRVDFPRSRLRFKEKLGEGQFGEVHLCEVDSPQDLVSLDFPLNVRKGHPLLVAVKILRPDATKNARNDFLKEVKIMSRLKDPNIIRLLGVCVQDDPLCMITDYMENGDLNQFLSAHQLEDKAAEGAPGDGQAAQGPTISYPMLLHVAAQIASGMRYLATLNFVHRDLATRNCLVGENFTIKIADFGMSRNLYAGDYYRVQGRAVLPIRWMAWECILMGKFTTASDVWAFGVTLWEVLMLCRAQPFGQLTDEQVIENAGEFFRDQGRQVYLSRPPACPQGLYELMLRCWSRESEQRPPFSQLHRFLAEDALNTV
Sequence of Histone-lysine N-methyltransferase SUV39H2 (Q9H5I1 whole entry): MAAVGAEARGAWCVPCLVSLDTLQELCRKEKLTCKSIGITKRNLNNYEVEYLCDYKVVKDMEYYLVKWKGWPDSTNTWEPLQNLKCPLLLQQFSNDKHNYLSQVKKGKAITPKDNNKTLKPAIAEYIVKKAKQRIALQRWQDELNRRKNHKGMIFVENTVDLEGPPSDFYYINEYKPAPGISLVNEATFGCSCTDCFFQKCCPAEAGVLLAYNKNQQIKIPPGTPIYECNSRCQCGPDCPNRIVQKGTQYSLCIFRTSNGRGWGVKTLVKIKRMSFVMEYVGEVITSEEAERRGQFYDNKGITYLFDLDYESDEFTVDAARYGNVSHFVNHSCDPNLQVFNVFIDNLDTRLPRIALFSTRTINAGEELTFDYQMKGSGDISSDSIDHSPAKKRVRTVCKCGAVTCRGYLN
Sequence of Histone-lysine N-methyltransferase EZH2 (Q15910 whole entry): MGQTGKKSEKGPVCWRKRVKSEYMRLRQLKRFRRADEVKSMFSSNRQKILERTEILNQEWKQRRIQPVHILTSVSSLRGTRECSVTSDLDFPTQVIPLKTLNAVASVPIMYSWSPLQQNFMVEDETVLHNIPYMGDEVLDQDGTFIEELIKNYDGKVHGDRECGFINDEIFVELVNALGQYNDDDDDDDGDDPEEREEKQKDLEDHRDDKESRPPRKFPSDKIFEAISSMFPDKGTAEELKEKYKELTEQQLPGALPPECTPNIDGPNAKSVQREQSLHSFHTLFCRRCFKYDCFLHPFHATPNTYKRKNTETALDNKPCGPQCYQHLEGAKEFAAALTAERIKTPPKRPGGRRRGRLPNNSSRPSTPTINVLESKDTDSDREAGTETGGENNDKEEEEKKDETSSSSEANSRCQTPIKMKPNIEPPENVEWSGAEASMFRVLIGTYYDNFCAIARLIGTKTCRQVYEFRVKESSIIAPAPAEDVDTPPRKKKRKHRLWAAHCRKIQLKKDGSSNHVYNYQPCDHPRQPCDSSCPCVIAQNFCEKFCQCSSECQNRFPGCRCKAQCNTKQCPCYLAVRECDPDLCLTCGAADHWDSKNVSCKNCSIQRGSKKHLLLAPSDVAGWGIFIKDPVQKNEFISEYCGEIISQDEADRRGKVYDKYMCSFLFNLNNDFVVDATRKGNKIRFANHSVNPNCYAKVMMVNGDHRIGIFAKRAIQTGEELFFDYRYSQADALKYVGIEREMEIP
Sequence of Protein arginine N-methyltransferase 1 (Q99873 whole entry): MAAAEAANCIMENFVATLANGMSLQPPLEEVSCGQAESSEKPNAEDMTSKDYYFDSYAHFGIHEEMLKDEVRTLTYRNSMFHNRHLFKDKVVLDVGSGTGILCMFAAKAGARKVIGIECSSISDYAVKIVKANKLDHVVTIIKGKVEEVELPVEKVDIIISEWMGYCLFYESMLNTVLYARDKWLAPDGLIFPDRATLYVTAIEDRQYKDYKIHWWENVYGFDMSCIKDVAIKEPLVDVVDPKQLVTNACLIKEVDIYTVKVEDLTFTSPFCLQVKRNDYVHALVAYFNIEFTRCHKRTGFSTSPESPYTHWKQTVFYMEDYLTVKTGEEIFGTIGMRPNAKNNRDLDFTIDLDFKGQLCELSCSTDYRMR

COc1cc2c(NC3CCN(C(C)C)CC3)nc(N3CCC(F)(F)CC3)nc2cc1OCCCN1CCCC1
> 10 µM: IC50 [1] | IC50 [2] | IC50 [3] | IC50 [4] | IC50 [5] | IC50 [6] | IC50 [7] | IC50 [8] | IC50 [9] | IC50 [10] | Ki [11] | IC50 [12] | IC50 [13] | IC50 [14]

Cc1cnc(-c2cc(Cl)ccc2F)cc1-n1c(=O)n(CC(N)=O)c2cnccc21 [TP-008]
36.7%: % of control [20]
39.6%: % of control [22]
39.5%: % of control [17]
33.9%: % of control [21]
38.6%: % of control [18]
> 20 µM: IC50 [15] | IC50 [16] | IC50 [19] | IC50 [23]
